Measured values: article PMC8119466, “A screen of FDA-approved drugs identifies inhibitors of protein tyrosine phosphatase 4A3 (PTP4A3 or PRL-3)” (Scientific Reports, 2021)
Read-outs that look alike come from different tables or passages of the source.

Columns and labels:
Type in all cases: biochemical
[1] = biological target: T1, recombinant PRL-3 (Homo sapiens, UniProt O75365); assay: In vitro phosphatase assay (DiFMUP hydrolysis), PRL-3; also: test concentration or dose not given here
T1 construct: 6xHis (N, cleaved yes); made in house; host or cells: E. coli One Shot BL21 Star

[2] = biological target: T2, recombinant PRL-2 (Homo sapiens, UniProt Q12974); assay: In vitro phosphatase assay (DiFMUP hydrolysis), PRL-2;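 also: PRL-2 activity read as DiFMUP hydrolysis after 20 min at room temperature with drug, enzyme first pre-reduced at 4 °C for 20 min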
T2 construct: 6xHis (N, cleaved yes); made in house; host or cells: E. coli One Shot BL21 Star
T2 sequence (Q12974 1-167): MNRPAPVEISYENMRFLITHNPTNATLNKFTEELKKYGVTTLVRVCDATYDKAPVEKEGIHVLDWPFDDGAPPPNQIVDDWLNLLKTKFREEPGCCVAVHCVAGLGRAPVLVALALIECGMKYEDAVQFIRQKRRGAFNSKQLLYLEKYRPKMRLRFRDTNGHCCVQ

[3] = biological target: T3, recombinant PRL-1 (Homo sapiens, UniProt Q93096); assay: In vitro phosphatase assay (DiFMUP hydrolysis), PRL-1; also: test concentration or dose not given here
T3 construct: 6xHis (N, cleaved yes); made in house; host or cells: E. coli One Shot BL21 Star
T3 sequence (Q93096 1-173): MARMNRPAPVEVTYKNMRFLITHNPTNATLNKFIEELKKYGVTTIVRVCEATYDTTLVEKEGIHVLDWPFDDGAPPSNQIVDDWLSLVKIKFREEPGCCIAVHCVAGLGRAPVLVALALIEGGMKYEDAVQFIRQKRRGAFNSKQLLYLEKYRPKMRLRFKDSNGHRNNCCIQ

[4] = FDA-approved drug screen, compared to DMSO

T1 sequence (O75365 whole entry): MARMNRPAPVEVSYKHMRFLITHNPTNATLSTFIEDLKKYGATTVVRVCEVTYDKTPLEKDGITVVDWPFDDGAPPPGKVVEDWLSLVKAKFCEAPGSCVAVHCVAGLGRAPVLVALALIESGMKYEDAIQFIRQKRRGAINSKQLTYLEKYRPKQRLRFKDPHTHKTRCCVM

SMILES | % Phosphatase Activity (compared to DMSO) PRL-3 [1, 4] | % Phosphatase Activity (compared to DMSO) PRL-2 [2, 4] | % Phosphatase Activity (compared to DMSO) PRL-1 [3, 4] | % Phosphatase Activity (compared to DMSO) PRL-3 [1] | % Phosphatase Activity (compared to DMSO) PRL-2 [2] | % Phosphatase Activity (compared to DMSO) PRL-1 [3]
Cc1c(NC(=O)c2cccnc2)c(=O)n(-c2ccccc2)n1C [Nifenazone] | 92% | 105% | 91% |  |  | 
O=C(O)c1cccnc1Nc1cccc(C(F)(F)F)c1 [Niflumic acid] | 88% | 112% | 109% |  |  | 
O=C(N/N=C/c1ccc([N+](=O)[O-])o1)c1ccc(O)cc1 [Nifuroxazide] | 57% | 62% | 68% |  |  | 
Cc1cn(-c2cc(NC(=O)c3ccc(C)c(Nc4nccc(-c5cccnc5)n4)c3)cc(C(F)(F)F)c2)cn1 [Nilotinib (AMN-107)] | 76% | 92% | 83% |  |  | 
COC(=O)C1=C(C#N)NC(C)=C(C(=O)OC(C)C)C1c1cccc([N+](=O)[O-])c1 (stereo not drawn) [Nilvadipine] | 87% | 82% | 88% |  |  | 
CS(=O)(=O)Nc1ccc([N+](=O)[O-])cc1Oc1ccccc1 [Nimesulide] |  |  |  | 85% | 83% | 78%
COCCOC(=O)C1=C(C)NC(C)=C(C(=O)OC(C)C)C1c1cccc([N+](=O)[O-])c1 (stereo not drawn) [Nimodipine] | 88% | 72% | 76% |  |  | 
COC(=O)c1ccc2c(c1)NC(=O)/C2=C(\Nc1ccc(N(C)C(=O)CN2CCN(C)CC2)cc1)c1ccccc1 [Nintedanib (BIBF 1120)] | 73% | 106% | 92% |  |  | 
COC(=O)C1=C(C)NC(C)=C(C(=O)OCC(C)C)C1c1ccccc1[N+](=O)[O-] (stereo not drawn) [Nisoldipine] | 85% | 75% | 81% |  |  | 
CC(=O)Oc1ccccc1C(=O)Nc1ncc([N+](=O)[O-])s1 [Nitazoxanide] | 62% | 76% | 87% |  |  | 
CCOC(=O)C1=C(C)NC(C)=C(C(=O)OC)C1c1cccc([N+](=O)[O-])c1 (stereo not drawn) [Nitrendipine] | 68% | 84% | 85% |  |  | 
NC(=O)N/N=C/c1ccc([N+](=O)[O-])o1 [Nitrofural] | 68% | 72% | 82% |  |  | 
O=C1CN(/N=C/c2ccc([N+](=O)[O-])o2)C(=O)N1 [Nitrofurantoin] |  |  |  | 67% | 63% | 76%
O=[N+]([O-])c1ccc(O)c2ncccc12 [Nitroxoline] | 49% | 48% | 58% |  |  | 
CNC(=C[N+](=O)[O-])NCCSCc1csc(CN(C)C)n1 [Nizatidine] | 97% | 105% | 87% |  |  | 
NC[C@H](O)c1ccc(O)c(O)c1.O.O=C(O)C(O)C(O)C(=O)O [Noradrenaline bitartrate monohydrate] | 88% | 120% | 103% |  |  | 
C#C[C@]1(O)CC[C@H]2[C@@H]3CCC4=CC(=O)CC[C@@H]4[C@H]3CC[C@@]21C [Norethindrone] | 79% | 104% | 92% |  |  | 
